From US8410161B2, “Thioxanthone ring system derivatives” (National Defense Medical Center, priority 2010, dated 2013)

Columns and labels:
[1] = system: A3 cell lines; test: MTT assay, A3 cell lines (lung cancer stem cell); format: cell-based
Excerpt: Please to FIG. 4B, various cell viabilities of the A3 cell lines can be obtained through the MTT assay and illustrated in FIG. 4B while the compounds No. 1˜30 are used to treat A3 cell lines, wherein A3 cell lines are lung cancer stem cell.

[2] = system: HEL299 fibroblast; test: MTT assay, HEL299 fibroblast; format: cell-based
Excerpt: (§1) Please refer to FIG. 4C, various cell viabilities of the HEL299 cell lines can be obtained through the MTT assay while the compounds No. 1˜30 are used to treat HEL299 cell lines, wherein HEL299 cell lines are fibroblast.

[3] = MTT assay, HEL299 fibroblast; format: cell-based; details: human
Excerpt: as §1

[4] = system: A control cell lines; test: MTT assay, A control cell lines (lung cancer cell); format: cell-based
Excerpt: Please refer to Table 1 and FIGS. 4A-4C. According to a MTT assay (Table 1), various cell viabilities of the A control cell lines can be obtained and illustrated in FIG. 4A while the compounds No. 2˜30 are used to treat A control cell lines, wherein A control cell lines are lung cancer cell.

[5] = system: SF-539; test: NCI in vitro DTP human cell line screen, SF-539; format: cell-based; details: CNS Cancer, 1.00E−5 Molar
Experimental: (§2) Then, a cell toxicity assay of the cancer lines made by National Cancer Institute will be discussed as follows. The cell toxicity assay is performed by choosing ten compounds (existing certification numbers) from the 59 compounds disclosed in the present invention first.

[6] = system: SNB-75; test: NCI in vitro DTP human cell line screen, SNB-75; format: cell-based; details: CNS Cancer, 1.00E−5 Molar
Experimental: as §2

[7] = system: IGROV1; test: NCI in vitro DTP human cell line screen, IGROV1; format: cell-based; details: Ovarian Cancer, 1.00E−5 Molar
Experimental: as §2

[8] = system: KM12; test: NCI in vitro DTP human cell line screen, KM12; format: cell-based; details: Colon Cancer, 1.00E−5 Molar
Experimental: as §2

[9] = system: SR; test: NCI in vitro DTP human cell line screen, SR; format: cell-based; details: Leukemia, 1.00E−5 Molar
Experimental: as §2

[10] = system: BT-549; test: NCI in vitro DTP human cell line screen, BT-549; format: cell-based; details: Breast Cancer, 1.00E−5 Molar
Experimental: as §2

[11] = system: MOLT-4; test: NCI in vitro DTP human cell line screen, MOLT-4; format: cell-based; details: Leukemia, 1.00E−5 Molar
Experimental: as §2

[12] = system: COLO 205; test: NCI in vitro DTP human cell line screen, COLO 205; format: cell-based; details: Colon Cancer, 1.00E−5 Molar
Experimental: as §2

[13] = system: NCI-H322M; test: NCI in vitro DTP human cell line screen, NCI-H322M; format: cell-based; details: Non-Small Cell Lung Cancer, 1.00E−5 Molar
Experimental: as §2

[14] = system: PC-3; test: NCI in vitro DTP human cell line screen, PC-3; format: cell-based; details: Prostate Cancer, 1.00E−5 Molar
Experimental: as §2

[15] = system: MCF7; test: NCI in vitro DTP human cell line screen, MCF7; format: cell-based; details: Breast Cancer, 1.00E−5 Molar
Experimental: as §2

[16] = system: UACC-62; test: NCI in vitro DTP human cell line screen, UACC-62; format: cell-based; details: Melanoma, 1.00E−5 Molar
Experimental: as §2

[17] = system: T-47D; test: NCI in vitro DTP human cell line screen, T-47D; format: cell-based; details: Breast Cancer, 1.00E−5 Molar
Experimental: as §2

[18] = system: HCT-116; test: NCI in vitro DTP human cell line screen, HCT-116; format: cell-based; details: Colon Cancer, 1.00E−5 Molar
Experimental: as §2

[19] = system: UACC-257; test: NCI in vitro DTP human cell line screen, UACC-257; format: cell-based; details: Melanoma, 1.00E−5 Molar
Experimental: as §2

[20] = system: SK-OV-3; test: NCI in vitro DTP human cell line screen, SK-OV-3; format: cell-based; details: Ovarian Cancer, 1.00E−5 Molar
Experimental: as §2

[21] = system: NCI/ADR-RES; test: NCI in vitro DTP human cell line screen, NCI/ADR-RES; format: cell-based; details: Ovarian Cancer, 1.00E−5 Molar
Experimental: as §2

[22] = system: OVCAR-4; test: NCI in vitro DTP human cell line screen, OVCAR-4; format: cell-based; details: Ovarian Cancer, 1.00E−5 Molar
Experimental: as §2

[23] = system: MDA-MB-231/ATCC; test: NCI in vitro DTP human cell line screen, MDA-MB-231/ATCC; format: cell-based; details: Breast Cancer, 1.00E−5 Molar
Experimental: as §2

[24] = system: CCRF-CEM; test: NCI in vitro DTP human cell line screen, CCRF-CEM; format: cell-based; details: Leukemia, 1.00E−5 Molar
Experimental: as §2

[25] = system: NCI-H522; test: NCI in vitro DTP human cell line screen, NCI-H522; format: cell-based; details: Non-Small Cell Lung Cancer, 1.00E−5 Molar
Experimental: as §2

[26] = system: TK-10; test: NCI in vitro DTP human cell line screen, TK-10; format: cell-based; details: Renal Cancer, 1.00E−5 Molar
Experimental: as §2

[27] = system: ACHN; test: NCI in vitro DTP human cell line screen, ACHN; format: cell-based; details: Renal Cancer, 1.00E−5 Molar
Experimental: as §2

[28] = system: OVCAR-3; test: NCI in vitro DTP human cell line screen, OVCAR-3; format: cell-based; details: Ovarian Cancer, 1.00E−5 Molar
Experimental: as §2

[29] = system: SK-MEL-5; test: NCI in vitro DTP human cell line screen, SK-MEL-5; format: cell-based; details: Melanoma, 1.00E−5 Molar
Experimental: as §2

[30] = system: U251; test: NCI in vitro DTP human cell line screen, U251; format: cell-based; details: CNS Cancer, 1.00E−5 Molar
Experimental: as §2

[31] = system: HT29; test: NCI in vitro DTP human cell line screen, HT29; format: cell-based; details: Colon Cancer, 1.00E−5 Molar
Experimental: as §2

[32] = system: OVCAR-5; test: NCI in vitro DTP human cell line screen, OVCAR-5; format: cell-based; details: Ovarian Cancer, 1.00E−5 Molar
Experimental: as §2

[33] = system: LOX IMVI; test: NCI in vitro DTP human cell line screen, LOX IMVI; format: cell-based; details: Melanoma, 1.00E−5 Molar
Experimental: as §2

[34] = system: UO-31; test: NCI in vitro DTP human cell line screen, UO-31; format: cell-based; details: Renal Cancer, 1.00E−5 Molar
Experimental: as §2

[35] = system: SK-MEL-2; test: NCI in vitro DTP human cell line screen, SK-MEL-2; format: cell-based; details: Melanoma, 1.00E−5 Molar
Experimental: as §2

[36] = system: NCI-H226; test: NCI in vitro DTP human cell line screen, NCI-H226; format: cell-based; details: Non-Small Cell Lung Cancer, 1.00E−5 Molar
Experimental: as §2

[37] = system: 786-0; test: NCI in vitro DTP human cell line screen, 786-0; format: cell-based; details: Renal Cancer, 1.00E−5 Molar
Experimental: as §2

[38] = system: SK-MEL-28; test: NCI in vitro DTP human cell line screen, SK-MEL-28; format: cell-based; details: Melanoma, 1.00E−5 Molar
Experimental: as §2

[39] = system: SW-620; test: NCI in vitro DTP human cell line screen, SW-620; format: cell-based; details: Colon Cancer, 1.00E−5 Molar
Experimental: as §2

[40] = system: 60 cancer lines; test: NCI cell toxicity assay of 60 cancer lines, whole panel summary; format: cell-based, human; details: 1.00E−5 Molar
Experimental: as §2

[41] = system: HS 578-T; test: NCI in vitro DTP human cell line screen, HS 578-T; format: cell-based; details: Breast Cancer, 1.00E−5 Molar
Experimental: as §2

[42] = system: M14; test: NCI in vitro DTP human cell line screen, M14; format: cell-based; details: Melanoma, 1.00E−5 Molar
Experimental: as §2

[43] = system: MALME-3M; test: NCI in vitro DTP human cell line screen, MALME-3M; format: cell-based; details: Melanoma, 1.00E−5 Molar
Experimental: as §2

[44] = system: DU145; test: NCI in vitro DTP human cell line screen, DU145; format: cell-based; details: Prostate Cancer, 1.00E−5 Molar
Experimental: as §2

[45] = system: SNB-19; test: NCI in vitro DTP human cell line screen, SNB-19; format: cell-based; details: CNS Cancer, 1.00E−5 Molar
Experimental: as §2

[46] = system: SN12C; test: NCI in vitro DTP human cell line screen, SN12C; format: cell-based; details: Renal Cancer, 1.00E−5 Molar
Experimental: as §2

[47] = system: HOP-62; test: NCI in vitro DTP human cell line screen, HOP-62; format: cell-based; details: Non-Small Cell Lung Cancer, 1.00E−5 Molar
Experimental: as §2

[48] = system: MDA-MB-468; test: NCI in vitro DTP human cell line screen, MDA-MB-468; format: cell-based; details: Breast Cancer, 1.00E−5 Molar
Experimental: as §2

[49] = system: NCI-H23; test: NCI in vitro DTP human cell line screen, NCI-H23; format: cell-based; details: Non-Small Cell Lung Cancer, 1.00E−5 Molar
Experimental: as §2

[50] = system: K562; test: NCI in vitro DTP human cell line screen, K562; format: cell-based; details: Leukemia, 1.00E−5 Molar
Experimental: as §2

[51] = system: SF-268; test: NCI in vitro DTP human cell line screen, SF-268; format: cell-based; details: CNS Cancer, 1.00E−5 Molar
Experimental: as §2

[52] = system: HCC-2998; test: NCI in vitro DTP human cell line screen, HCC-2998; format: cell-based; details: Colon Cancer, 1.00E−5 Molar
Experimental: as §2

[53] = system: OVCAR-8; test: NCI in vitro DTP human cell line screen, OVCAR-8; format: cell-based; details: Ovarian Cancer, 1.00E−5 Molar
Experimental: as §2

[54] = system: HOP-92; test: NCI in vitro DTP human cell line screen, HOP-92; format: cell-based; details: Non-Small Cell Lung Cancer, 1.00E−5 Molar
Experimental: as §2

[55] = system: RPMI-8226; test: NCI in vitro DTP human cell line screen, RPMI-8226; format: cell-based; details: Leukemia, 1.00E−5 Molar
Experimental: as §2

[56] = system: RXF 393; test: NCI in vitro DTP human cell line screen, RXF 393; format: cell-based; details: Renal Cancer, 1.00E−5 Molar
Experimental: as §2

[57] = system: HL-60(TB); test: NCI in vitro DTP human cell line screen, HL-60(TB); format: cell-based; details: Leukemia, 1.00E−5 Molar
Experimental: as §2

[58] = system: HCT-15; test: NCI in vitro DTP human cell line screen, HCT-15; format: cell-based; details: Colon Cancer, 1.00E−5 Molar
Experimental: as §2

[59] = system: NCI-H460; test: NCI in vitro DTP human cell line screen, NCI-H460; format: cell-based; details: Non-Small Cell Lung Cancer, 1.00E−5 Molar
Experimental: as §2

Cc1ccc(Sc2ccc3c(=O)c4ccccc4sc3c2Cl)c(C)c1 [No. 10, 4-Chloro-3-(2,4-dimethylphenylthio)-9H-thioxanthen-9-one]
cell viabilities of A3 cell lines (MTT assay) [1]: 59.9% | inhibition effect on A3 cell line (in words) ([1]; summary of MTT cell viabilities): inhibition effect | cytotoxicity effect on the normal fibroblast (in words) [2]: without the cytotoxicity effect | viability [3]: 108% | cell viabilities of A control cell lines (MTT assay) [4]: 104 ± 11.0%

O=c1c2ccccc2sc2c(Cl)c(SCc3ccc(F)cc3)ccc12 [No. 24, 4-Chloro-3-(4-fluorobenzylthio)-9H-thioxanthen-9-one]
Growth Percent [5]: 103.66% | cell viabilities of A3 cell lines (MTT assay) [1]: 47.8% | Growth Percent [6]: 64.79% | Growth Percent [7]: 79.84% | Growth Percent [8]: 102.36% | Growth Percent [9]: 23.41% | Growth Percent [10]: 88.80% | Growth Percent [11]: 93.42% | Growth Percent [12]: 86.59% | Growth Percent [13]: 89.87% | Growth Percent [14]: 86.19% | Growth Percent [15]: 89.93% | Growth Percent [16]: 85.61% | Growth Percent [17]: 81.88% | Growth Percent [18]: 76.97% | Growth Percent [19]: 103.43% | Growth Percent [20]: 90.11% | Growth Percent [21]: 92.71% | Growth Percent [22]: 39.31% | Growth Percent [23]: 81.64% | Growth Percent [24]: 68.02% | Growth Percent [25]: 76.14% | Growth Percent [26]: 83.61% | Growth Percent [27]: 60.81% | Growth Percent [28]: 105.27% | Growth Percent [29]: 95.97% | Growth Percent [30]: 54.73% | Growth Percent [31]: 79.24% | Growth Percent [32]: 108.14% | Growth Percent [33]: 81.78% | Growth Percent [34]: 95.13% | Growth Percent [35]: 108.61% | Growth Percent [36]: 92.71% | Growth Percent [37]: 91.67% | Growth Percent [38]: 107.78% | Growth Percent [39]: 78.63% | Growth Percent, Mean ([40]; mean over all cell lines): 85.42% | cancer types with the better inhibition effect (in words) ([40]; summary of Table 3): better inhibition effect on Leukemia and central nervous system cancer | Growth Percent [41]: 67.70% | Growth Percent [42]: 93.91% | Growth Percent [43]: 93.42% | Growth Percent [44]: 103.70% | viability [3]: 62.7 ± 4.89% | Growth Percent [45]: 77.05% | Growth Percent [46]: 84.46% | Growth Percent [47]: 70.93% | Growth Percent [48]: 92.16% | Growth Percent [49]: 93.31% | Growth Percent [50]: 90.35% | Growth Percent [51]: 95.00% | Growth Percent [52]: 100.08% | Growth Percent [53]: 85.39% | Growth Percent [54]: 76.43% | Growth Percent [55]: 92.73% | cell viabilities of A control cell lines (MTT assay) [4]: 35.5% | Growth Percent [56]: 92.20% | Growth Percent [57]: 109.87% | Growth Percent [58]: 84.86% | Growth Percent [59]: 60.27%
